The record followed here is patent publication US12673954B2 (BRISTOL-MYERS SQUIBB COMPANY, priority 2021, dated 2026).

Molecules are shown by their SMILES.

Test [1] deals with IRF pathway, THP1-Dual™ cells. The experiment in a line: STING reporter assay in THP1-Dual cells, IRF pathway (Lucia luciferase, QUANTI-Luc). The settings on record: Homo sapiens, THP1-Dual, 20 h, THP1-Dual cells, 10% human plasma, 20 hours; Lucia luciferase; 100% activation = 100 μM cGAMP; read-out: IRF (EC50 μM). The class given is cell-based, human. The procedure, abridged: (§1)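 THP-1-derived dual-reporter cells treated with serially diluted compounds (final top concentration 100 μM) for 20 h at 37° C. NF-κB read as SEAP via QUANTI-Blue at OD620; IRF read as Lucia luminescence via QUANTI-Luc after 5 min. 100% activation set by 100 μM cGAMP, baseline by DMSO.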

In test [2] the test system is NF-κB pathway, THP1-Dual™ cells. The experiment in a line: STING reporter assay in THP1-Dual cells, NF-κB pathway (SEAP, QUANTI-Blue). The class given is cell-based, human. To be noted: Homo sapiens, THP1-Dual, 20 h, THP1-Dual cells, 10% human plasma, 20 hours; SEAP; 100% activation = 100 μM cGAMP; read-out: NFkB (EC50 μM). In a few lines: as §1
On the technique in general: A reporter such as luciferase makes a cellular process visible.

As usually defined, the EC50 is the concentration at which the effect is half-maximal.

In the case of `COC(=O)c1c(O)ccc2cc(CNC(=O)c3cnn4cccnc34)oc12` [EXAMPLE 109, Methyl 6-hydroxy-2-((pyrazolo[1,5-a]pyrimidine-3-carboxamido)methyl)benzofuran-7-carboxylate], the concentration giving a half-maximal response (EC50) in test [1] stood at 0.9 µM; in test [2], 1.1 µM.

In the case of `COC(=O)c1cc(F)cc2c(Cl)c(CNC(=O)c3cnn4cccnc34)oc12` [EXAMPLE 110, Methyl 3-chloro-5-fluoro-2-((pyrazolo[1,5-a]pyrimidine-3-carboxamido)methyl)benzofuran-7-carboxylate], the values for the EC50 in test [1] and in test [2] were 0.22 µM and 0.27 µM, respectively.

Regarding `COC(=O)c1cc(F)cc2c(Cl)c([C@H](C)NC(=O)c3cnn4cccnc34)oc12` [EXAMPLE 111, Methyl (S)-3-chloro-5-fluoro-2-(1-(pyrazolo[1,5-a]pyrimidine-3-carboxamido)ethyl)benzofuran-7-carboxylate], the EC50 came to 1.2 µM in test [1] and 1.4 µM in test [2].

With `COC(=O)c1cc(Cl)cc2c(Cl)c(CNC(=O)c3cnn4cccnc34)oc12` [EXAMPLE 112, Methyl 3,5-dichloro-2-((pyrazolo[1,5-a]pyrimidine-3-carboxamido)methyl)benzofuran-7-carboxylate], the EC50 was 0.2 µM in test [1] and 0.26 µM in test [2].

Turning to `COC(=O)c1cc(Cl)cc2c(Cl)c(CNC(=O)c3cncc4cccnc34)oc12` [EXAMPLE 113, methyl 2-((1,6-naphthyridine-8-carboxamido)methyl)-3,5-dichlorobenzofuran-7-carboxylate], the EC50 in test [1] turned out to be 0.32 µM; in test [2], 0.51 µM.

For the molecule `COC(=O)c1cc(Cl)cc2c(Cl)c([C@H](C)NC(=O)c3cnn4cccnc34)oc12` [EXAMPLE 114, Methyl (S)-3,5-dichloro-2-(1-(pyrazolo[1,5-a]pyrimidine-3-carboxamido)ethyl)benzofuran-7-carboxylate], the values for the EC50 in test [1] and in test [2] were 0.97 µM and 0.89 µM, respectively.

In the case of `COC(=O)c1cc(Cl)cc2c(C)c(CNC(=O)c3cnn4cccnc34)oc12` [EXAMPLE 115, Methyl 5-chloro-3-methyl-2-((pyrazolo[1,5-a]pyrimidine-3-carboxamido)methyl)benzofuran-7-carboxylate], the EC50 in test [1] is 0.6 µM; in test [2], 0.82 µM.

Take `COC(=O)c1cc(Cl)cc2c(C(F)(F)F)c(CNC(=O)c3cnn4cccnc34)oc12` [EXAMPLE 116, Methyl 5-chloro-2-((pyrazolo[1,5-a]pyrimidine-3-carboxamido)methyl)-3-(trifluoromethyl)benzofuran-7-carboxylate]: the EC50 is 2.9 µM in test [1] and 3.1 µM in test [2].

On to `COC(=O)c1cc(C)cc2c(Cl)c(CNC(=O)c3cnn4cccnc34)oc12` [EXAMPLE 117, Methyl 3-chloro-5-methyl-2-((pyrazolo[1,5-a]pyrimidine-3-carboxamido)methyl)benzofuran-7-carboxylate], for which the figures for the EC50 in test [1] and in test [2] were 0.2 µM and 0.28 µM, respectively.

With `COC(=O)c1cc(C)cc2c(Cl)c(CNC(=O)c3cncc4cccnc34)oc12` [EXAMPLE 118, methyl 2-((1,6-naphthyridine-8-carboxamido)methyl)-3-chloro-5-methylbenzofuran-7-carboxylate], the EC50 in test [1] amounted to 0.3 µM; in test [2], 0.37 µM.

For `COC(=O)c1cc(C)cc2c(Cl)c(CNC(=O)c3cnn4cc(C)cnc34)oc12` [EXAMPLE 119, Methyl 3-chloro-5-methyl-2-((6-methylpyrazolo[1,5-a]pyrimidine-3-carboxamido)methyl)benzofuran-7-carboxylate], the EC50 in test [1] and in test [2] was 2.6 µM throughout.

As to `COC(=O)c1cc(C)cc2c(Br)c(CNC(=O)c3cnn4cccnc34)oc12` [EXAMPLE 121, Methyl 3-bromo-5-methyl-2-((pyrazolo[1,5-a]pyrimidine-3-carboxamido)methyl)benzofuran-7-carboxylate], the EC50 in test [1] worked out at 0.4 µM; in test [2] it was 0.28 µM.
